Measurements: patent US20210177982A1, “MUCUS-PENETRATING PEPTIDES, DELIVERY VEHICLES AND METHODS OF THERAPY” (DNALite Therapeutics, Inc., priority 2018, published 2021)
Ends that are not written are not given here.

How the values were obtained:
[1] = 25° C., RP-HPLC, Ac-X-G-A-K-G-A-G-V-G L-amide; cited from earlier work
[2] = pH 7 (No salt); cited from earlier work
[3] = tested on: mucin from porcine stomach; test: Peptide mucin interaction assay (dynamic light scattering); type: binding; conditions: peptide conjugated to DSPE-PEG2k-DBCO at 0.08% mol on MVL5/DOPC/Chol base system with DNA; 0.5 mg/mL mucin, sample:mucin 5:2
Experimental: DSPE-PEG2k-DBCO (Avanti Polar Lipids) was hydrated in water and agitated to form a transparent solution. Synthesized peptides with a lysine containing an azide on the N-terminus were conjugated to it. 2.5× moles of the azide peptides were added to the lipid mix and were left to react overnight. 10× moles of sodium azide were added to the reaction to quench it.
Thin film hydration was used to make a lipid base system composed of MVL5/DOPC/Chol (30/60/10% mol). Briefly, the lipids were dissolved in chloroform: methanol (9:1) and mixed. The lipids were then dried using a rotovap and hydrated in a HEPES-glucose buffer (10 mM HEPES, 230 mM Glucose, pH 7.4) for a final concentration of 1 mM. The lipid suspension was extruded through a 200 nm pore size filter for 20 passes using the NanoSizer MINI (T&T Scientific Corporation, Tennessee). An appropriate amount of DNA was added to the lipid base system for a charge ratio of +3 (assuming MVL5 has a charge ratio of +3 at neutral pH) and the solution was mixed thoroughly and let rest for 20 min. DSPE-PEG2k-DBCO conjugated peptides were added to the base system for a final lipid concentration of 0.08% mol. DSPE-SS-PEG2k was added to the base system for a final lipid concentration of 5% mol. The solutions were incubated for 1 h at 60° C.
For each sample, purified 0.5 mg/mL mucin from porcine stomach (Sigma Aldrich) was added to the sample at a sample:mucin volume ratio of 5:2. Dynamic light scattering was used to measure changes in light scattering in the presence of and without mucin for each sample. […] Thus SEQ ID NO. […] Thus SEQ ID NO. […] Thus SEQ ID NO. […] 4 conjugated systems, where peak shifting was not observed in the presence of mucin. Thus SEQ ID NO. […] 5 conjugated systems where peak shifting was not observed in the presence of mucin. Thus SEQ ID NO. […] 6 conjugated systems where peak shifting was not observed in the presence of mucin. Thus SEQ ID NO. […] FIG. 11 show SEQ ID NO. 7 conjugated systems where peak shifting was not observed in the presence of mucin. Thus SEQ ID NO. […] Thus SEQ ID NO. […] Thus SEQ ID NO. […] Thus, SEQ ID NO. […] Thus SEQ ID NO. […] FIG. 16 show SEQ ID NO. […] Thus SEQ ID NO.

Compound | ΔtR(Gly), pH 2, 20 mM H3PO4 [1] | ΔtR(Gly), pH 2, 20 mM TFA [1] | ΔtR(Gly), pH 5, 10 mM PO4 Buffer [1] | ΔtR(Gly), pH 7, 10 mM PO4 Buffer +50 mM NaCl [1] | ΔtR(Gly), pH 7, 10 mM PO4 Buffer +50 mM NaClO4 [1] | ΔtR(Gly), pH 7, 10 mM PO4 Buffer, No Salt [1] | Fauchere Score [2] | interaction with mucin (shift in DLS light intensity peak) [3]
C[C@H](N)C(=O)O [Ala] | 3.6 | 2.8 | 3.3 | 4.1 | 3.4 | 3.9 | 0.3 | –
N=C(N)NCCC[C@H](N)C(=O)O [Arg] | −5.0 | 0.6 | −3.7 | 4.1 | 6.4 | 3.9 | −1.010 | –
NC(=O)C[C@H](N)C(=O)O [Asn] | 0.0 | −0.6 | 0.0 | 1.0 | 30.8 | 0.5 | −0.600 | –
N[C@@H](CC(=O)O)C(=O)O [Asp] | 2.2 | 1.6 | −1.0 | −0.8 | −7.6 | −0.9 | −0.770 | –
N[C@@H](CS)C(=O)O [Cys] | 8.1 | 7.6 | 7.9 | 9.1 | 8.2 | 8.3 | – | –
NC(=O)CC[C@H](N)C(=O)O [Gln] | 0.5 | 0.6 | 0.6 | 1.6 | 0.0 | 0.5 | −0.220 | –
N[C@@H](CCC(=O)O)C(=O)O [Glu] | 3.6 | 2.8 | −0.5 | −0.4 | −7.1 | −0.9 | −0.640 | –
NCC(=O)O [Gly, Glycine] | 0.0 | 0.0 | 0.0 | 0.0 | 0.0 | 0.0 | 0 | –
N[C@@H](Cc1c[nH]cn1)C(=O)O [His] | −7.0 | 0.0 | −5.1 | 4.7 | 3.4 | 3.4 | 0.130 | –
CC[C@H](C)[C@H](N)C(=O)O [Ile] | 21.3 | 21.4 | 22.2 | 22.8 | 23.0 | 22.4 | 1.8 | –
CC(C)C[C@H](N)C(=O)O [Leu] | 23.4 | 23.3 | 24.1 | 24.6 | 25.1 | 24.2 | 1.7 | –
NCCCC[C@H](N)C(=O)O [Lys] | −7.0 | 2.8 | −3.7 | −2.0 | 3.4 | −1.1 | −0.990 | –
CSCC[C@H](N)C(=O)O [Met] | 16.1 | 15.7 | 16.4 | 17.3 | 16.8 | 16.3 | 1.230 | –
N[C@@H](Cc1ccccc1)C(=O)O [Phe] | 29.1 | 29.1 | 30.1 | 30.1 | 30.8 | 29.9 | 1.79 | –
N[C@@H](CO)C(=O)O [Ser] | 0.0 | 0.0 | 0.0 | 1.2 | 30.5 | 0.5 | – | –
CCCC[C@H](N)C(=O)O [n-Leu, norleucine] | 24.6 | 24.6 | 25.6 | 25.9 | 26.6 | 25.6 | – | –
CCC[C@H](N)C(=O)O [n-Val, norvaline] | 15.4 | 15.2 | 15.9 | 16.9 | 16.8 | 16.3 | – | –
ADDLENVNEGMRIH [SEQ ID NO. 21] | – | – | – | – | – | – | – | found to not be mucin interacting
DATDRFHGPDAL [SEQ ID NO. 26] | – | – | – | – | – | – | – | found to be mucin interacting
DPVDTPNPTRRKPGK [SEQ ID NO. 24] | – | – | – | – | – | – | – | found to be mucin interacting
EPDNWSLDFPRR [SEQ ID NO. 8] | – | – | – | – | – | – | – | found to interact with mucin
HPGSPFPPEHRP [SEQ ID NO. 12] | – | – | – | – | – | – | – | found to be interacting with mucin

Compound | ΔtR(Gly), pH 2, 20 mM H3PO4 [1] | ΔtR(Gly), pH 2, 20 mM TFA [1] | ΔtR(Gly), pH 5, 10 mM PO4 Buffer [1] | ΔtR(Gly), pH 7, 10 mM PO4 Buffer +50 mM NaCl [1] | ΔtR(Gly), pH 7, 10 mM PO4 Buffer +50 mM NaClO4 [1] | ΔtR(Gly), pH 7, 10 mM PO4 Buffer, No Salt [1] | Fauchere Score [2] | interaction with mucin (shift in DLS light intensity peak) [3]
KTIEAHPPYYAS [SEQ ID NO. 7] | – | – | – | – | – | – | – | found not to interact with mucin
LIIYRDLISH [SEQ ID NO. 36, reference compound] | – | – | – | – | – | – | – | disappearance of the system peak was observed demonstrating mucin interaction
LSTAADMQGVVTDGMASGLDKDYLKPDD [SEQ ID NO. 22] | – | – | – | – | – | – | – | found to not interact with mucin
MAKPAQGAKY [SEQ ID NO. 2] | – | – | – | – | – | – | – | found to interact with mucin
MATKGGTVKA [SEQ ID NO. 1] | – | – | – | – | – | – | – | found not to interact with mucin
MSVTGGKMAP [SEQ ID NO. 3] | – | – | – | – | – | – | – | found to be interacting with mucin
NIENSTLATPLS [SEQ ID NO. 32] | – | – | – | – | – | – | – | found to be mucin interacting
NSGTMQSASRAT [SEQ ID NO. 5] | – | – | – | – | – | – | – | found not to interact with mucin
NYTTYKSHFQDR [SEQ ID NO. 9] | – | – | – | – | – | – | – | found to interact with mucin
PSSSSSSRIGDP [SEQ ID NO. 23] | – | – | – | – | – | – | – | found to be mucin interacting
QAASRVENYMHR [SEQ ID NO. 6] | – | – | – | – | – | – | – | found not to interact with mucin
RQSAGVL [SEQ ID NO. 14] | – | – | – | – | – | – | – | lack of interaction with mucin
RQSAGVLGFAPTNIDDTSFHA [SEQ ID NO. 16] | – | – | – | – | – | – | – | found to be mucin interacting
RQWVGDRA [SEQ ID NO. 17] | – | – | – | – | – | – | – | found to be mucin interacting
RWQVGDRADGE [SEQ ID NO. 19] | – | – | – | – | – | – | – | found to be mucin interacting
STSTVSTPVPPPVDDTTWLQSAS [SEQ ID NO. 15] | – | – | – | – | – | – | – | found to be mucus interacting
TPKTMTQTYDFS [SEQ ID NO. 4] | – | – | – | – | – | – | – | found not to interact with mucin
TSHTDAPPARSP [SEQ ID NO. 13] | – | – | – | – | – | – | – | found to be interacting with mucin
TSHTDAPPARSP [SEQ ID NO. 34] | – | – | – | – | – | – | – | found to be mucin interacting
VGDDSGGFSTTVSTEQNVPDPQV [SEQ ID NO. 20] | – | – | – | – | – | – | – | not found to be mucin interacting
YPYDANHTRSPT (not fully specified (N-terminus)) [SEQ ID NO. 10] | – | – | – | – | – | – | – | found to be interacting with mucin
